{"source": "patent US5716934A", "about": "“Eck receptor ligands” (Amgen Inc., priority 1995, dated 1998)", "key": {"[1]": {"test_system": "extracellular domain of the kit receptor", "assay": "BIAcore binding to surfaces activated with kit receptor extracellular domain", "excerpt": "SDS-PAGE analysis of the fractions from this column confirmed that EBP was co-eluted with the receptor binding activity."}, "[2]": {"test_system": "granulation tissue in subcutaneously implanted wound chambers", "assay": "Rat wound chamber assay (granulation tissue formation)", "assay_type": "in vivo", "experimental": "Male Sprague-Dawley specific pathogen free rats (300-350 g; Charles River Breeding Laboratories, Inc.) were used for this study. Rats were anesthetized with sodium pentobarbital (50 mg/kg body weight) by intraperitoneal injection. Using aseptic surgical technique, a 3 cm midline incision was made on the dorsal surface of the rat. A single pocket was formed under the panniculus carnosis by blunt dissection on one side of the animal. A 3 cm long×1 cm diameter sterile stainless steel wire mesh cylinder was then inserted subcutaneously. The wound chambers used were similar to those described by Schilling et. al. (Surgery 46, 702-710 (1959)) and utilized by Hunt et. al. (Am. J. Surg. 114, 302-307 (1967)) as wound healing models. The incision was closed with wound clips. The rats survived the operation well with no evidence of postoperative discomfort. Beginning 3 days after wound chamber implantation, the rats were randomly divided into 5 groups. At this time daily injections of 1) 10 μg CHO-derived EBP, 2) 1 μg CHO-derived EBP, 3) 8 μg E. coli derived EBP, 4) 5 μg recombinant platelet derived growth factor (PDGF), or 5) 0.1 ml sterile PBS and 1 mM CHAPS were begun and continued for a total of 9 days. The injections were made directly into the wound chamber through a silicone septum at the outer edge of the chamber. Twelve days after chamber implantation, the rats were sacrificed by CO2 asphyxiation. Immediately after sacrifice, the chambers were removed surgically and carefully opened. The enclosed granulation tissue was then weighed, and stored at -70° C. for future processing.\nGranulation tissue samples were thawed and homogenized with a Polytron homogenizer in 2 ml of ice-cold distilled water for approximately 1 minute. Next, 2 ml of ice-cold 10% trichloroacetic acid was added to the homogenate and incubated at 4° C. for 1 hour. The TCA-precipitated samples were centrifuged (500 g, 10 minutes) at 4° C., washed once with 2 ml of ice-cold 5% TCA, and finally washed with 2 ml of ice-cold 95% ethanol containing 50 mM sodium acetate. Samples were defatted twice with 2 ml of ethanol:ether (3:1, v/v) at 20° C. After each defatting procedure, samples were centrifuged (500×g, 10 minutes) and the supernate discarded. The pellet was then dissolved in 1N sodium hydroxide and brought up to a volume of 10 ml.\nTotal protein was determined by taking an aliquot of the solubilized granulation tissue and assaying the sample according to the method of Bradford (Anal. Biochem. 72, 248-251 (1976)) Bovine serum albumin (Sigma Chemical Co., St. Louis, Mo.) was used for a protein standard curve.\nTotal DNA content was determined as deoxy-ribose by the colorimetric method of Burton (Biochem. J. 62, 315 (1956)). Briefly, a 1 ml aliquot of the solubilized sample (in 1N NaOH) was neutralized with the addition of 0.5 ml of 2N HCl. A 1 ml aliquot of the neutralized solution was extracted in 10% perchloric acid at 90° C. for 15 minutes. A 1 ml portion of the final extract was added to 2 ml activated diphenylamine (Sigma Chemical, St. Louis, Mo.) reagent and absorbance at 600 nm was measured after overnight incubation at room temperature. Hydrolyzed calf thymus DNA (Sigma) was used to construct the standard curve. The DNA content was measured as a rough index of the number of cells in the wound chamber, with the realization that cell type and cell cycle status also influence DNA content.\nTotal glycosaminoglycans (GAGs) were determined using chondroitin sulfate as a standard. A spectrophotometric assay for GAGs was run utilizing a change in absorption spectrum of the dye 1,9- dimethyl methylene blue (Farndale et al. Conn. Tiss. Res. 9, 247-248 (1982)).\nTotal collagen content was determined as hydroxyproline (an index of collagen content) after hydrolysis of the solubilized granulation tissue in 6N HCl at 110° C. for 24 hours. […]"}, "[3]": {"test_system": "eck receptor (p130^eck)", "assay": "p130eck autophosphorylation in LIM 2405 cells", "assay_type": "cell-based, human", "conditions": "intact LIM 2405 cells, 10-15 min at 37° C.", "experimental": "The LIM 2405 colorectal carcinoma cell line (Whitehead et al. Immunol. and Cell Biol. 70, 227 (1992)) was maintained in RPMI 1640 containing 5% FBS, 1 μg/ml insulin, 10 μg/ml hydrocortisone and 10 μM α-thioglycerol, and subpassaged by trypsination and dilution (1:5) into fresh media. Prior to assay 2.5×10^5 LIM 2405 cells were seeded into 6-well dishes (Falcon #3046) and incubated for 24 hr at 37° C. The media was discarded and replaced with serum-free RPMI 1640 containing 0.03% BSA, 1 μg/ml insulin, 10 μg/ml hydrocortisone and 10 μM α-thioglycerol, then incubated for 12-18 hr. In some experiments the cell cultures were labelled with ^32 P-orthophosphate (2 mCi/ml) in phosphate-free RPMI 1640 (Flow) for 2-3 hr prior to treatment. Growth factor stock solutions were prediluted at varying concentrations into 2.0 ml of serum-free media, then warmed to 37° C. Cell cultures were removed from the incubator, and the supernatant media discarded. Treatments were promptly added and the cell cultures incubated at 37° C. for 10-15 min. The cultures were then removed from the incubator, placed on ice, and the culture supernatant aspirated.\nThe treated cell cultures were chilled to 0° C. then washed once with ice-cold PBS (GIBCO). The residual PBS was aspirated and the cells were lysed by the addition of 1.0 ml of ice-cold RIPA buffer (10 mM sodium phosphate, pH 7.4, 150 mM sodium chloride, 0.1% sodium dodecyl sulfate, 1% NP-40, 1% deoxycholate, 1% Trasylol, 2 mM EDTA, 50 mM sodium fluoride and 100 mM sodium orthovanadate). After a 10 min incubation the lysates were transferred to 1.5 ml tubes and clarified by centrifugation for 30 min at 10,000×g. The clarified lysate supernatants were transferred to new tubes and immunoprecipitated with 1.0 μg/ml of affinity purified rabbit anti-Eck C-terminal domain antibody for 2 hr at 0° C. Immune complexes were adsorbed to Protein-G Sepharose beads (Pharmacia) at 4° C. for 30 min, washed twice with ice-cold RIPA buffer, once with 0.1M Tris-HCl, pH 8.0, containing 0.5M LiCl, and once with RIPA. The resulting immunoprecipitates were solubilized with SDS-PAGE sample buffer and stored for further analysis.\nThe anti-eck immunoprecipitates from treated and untreated LIM 2405 cell lysates were resolved on 7.5% polyacrylamide gels as previously described (Boyle et al. Meth. Enzymol. 201, 110 (1991)). […] Immune complexes were detected by chemiluminescent exposure (ECL, Amersham) to Kodak X-OMAT X-ray film at room temperature for 0.5-5 min.\nEck receptor immunoprecipitates from ^32 P-labelled LIM 2405 cells were resolved by SDS-PAGE, and the gel dried directly without fixation. After exposure to X-ray film the labelled eck receptor band was isolated and phosphoamino acid content determined as described (Boyle et al. Meth. Enzymol. 201, 110 (1991))"}, "[4]": {"conditions": "5 ug per chamber per day x 9 days, harvest day 12, mean ± SEM"}, "[5]": {"conditions": "5 ug per chamber per day x 9 days, harvest day 12, mean ± SEM, listed as rPDGF"}}, "data": [{"substance": "rSCF: the kit ligand [reference compound]", "values": [{"measurement": "binding to BIAcore surfaces activated with the extracellular domain of the kit receptor", "setting": "[1]", "result": "could bind"}]}, {"substance": "PDGF [reference compound]", "values": [{"measurement": "DNA", "setting": "[2]; [4]", "result": "356 ± 64", "unit": "µg"}, {"measurement": "HYDROXY-PROLINE", "setting": "[2]; [4]", "result": "478.4 ± 85.9", "unit": "µg"}, {"measurement": "TOTAL GYLCOSAMINO-GLYCANS", "setting": "[2]; [4]", "result": "725.2 ± 104.4", "unit": "µg"}, {"measurement": "TOTAL PROTEIN", "setting": "[2]; [4]", "result": "7.46 ± 1.52", "unit": "mg"}, {"measurement": "WET WEIGHT", "setting": "[2]; [4]", "result": "417.4 ± 81.8", "unit": "mg"}, {"measurement": "DNA", "setting": "[2]; [5]", "result": "significantly increased"}, {"measurement": "TOTAL GYLCOSAMINO-GLYCANS", "setting": "[2]; [5]", "result": "significantly increased"}, {"measurement": "TOTAL PROTEIN", "setting": "[2]; [5]", "result": "significantly increased"}, {"measurement": "WET WEIGHT", "setting": "[2]; [5]", "result": "significantly increased"}, {"measurement": "increase in hydroxyproline content over control chambers", "setting": "[2]; PDGF treated chambers (5 μg per day)", "result": 82, "unit": "%"}]}, {"substance": "EGF: growth factor used to treat LIM 2405 cells as specificity control [reference compound]", "values": [{"measurement": "eck receptor phosphorylation", "setting": "[3]", "result": "nor does EGF treatment induce eck phosphorylation"}]}]}
